From patent US20120010075A1 (priority 2009, published 2012)
Where two headings read alike, the source gives them in different places.

Key:
[1] = tested on: Leptosphaeria nodorum (LEPTNO); assay: In vitro fungitoxicity of hydrazones with and without copper towards Leptosphaeria nodorum (Example 26); type: cell-based; settings: 72 h at 25° C.; for inhibition of growth at 0.05 µg/mL: Parastagonospora nodorum, 72 h, read-out: LEPTNO % Inhn. Minus Copper Observed
[2] = tested on: Phytophthora infestans; type: in vivo, Phytophthora infestans on tomato; settings: applied 24 h before inoculation, assessed 7 days after inoculation
[3] = compound 0.05 μg/mL, copper-minus medium
[4] = compound 0.05 μg/mL, copper-plus medium (CuCl2.2H2O)
[5] = hydrazone 50 ppm + 50 μM CuCl2.2H2O, tomato
[6] = copper-minus medium, test compound Concn. 0.05 μg/mL
[7] = copper-plus medium (CuCl2 10 μM), test compound Concn. 0.05 μg/mL
[8] = hydrazone 50 ppm with 50 μM CuCl2.2H2O, tomato late blight

SMILES	inhibition of growth at 0.05 µg/mL [1, 3] [%]	LEPTNO % Inhn. Plus Copper Observed [1, 4] [%]	TLB % Control [2, 5] [%]	inhibition of growth at 0.05 µg/mL [1, 6] [%]	LEPTNO % Inhn. Plus Copper Observed [1, 7] [%]	TLB % Control [2, 8] [%]	LEPTNO % Inhn. Minus Copper Observed [1, 3] [%]
Cc1ccc(C(=O)N/N=C/c2cc(Cl)ccc2O)cc1 [Example 180]	10.8	95.1	43.9	–	–	–	–
CC(C)(C)c1ccc(C(=O)N/N=C/c2cc(Cl)cc(Cl)c2O)cc1 [Example 87]	8.1	98.6	69.5	–	–	–	–
CC/C(=N\NC(=O)c1ccccc1)c1ccccc1O [Example 130]	1.2	98.6	50.8	–	–	–	–
O=C(N/N=C/c1cc(Cl)cc(Br)c1O)c1cccc(Cl)c1 [Example 192]	7.8	94.7	84.2	–	–	–	–
Cc1ccccc1C(=O)N/N=C/c1cc(Br)ccc1O [Example 158]	6.2	96.9	84.7	–	–	–	–
COc1cc([N+](=O)[O-])cc(/C=N/NC(=O)c2ccccc2)c1O [Example 155]	1.9	78.3	32.0	–	–	–	–
O=C(N/N=C/c1cc(Cl)cc(Br)c1O)c1ccccc1Br [Example 193]	0	95.1	80.0	–	–	–	–
O=C(N/N=C/c1cc(Cl)cc(Cl)c1O)c1ccccc1Cl [Example 93]	6	95.2	77.2	–	–	–	–
O=C(N/N=C/c1cc(Cl)ccc1O)c1cccc(Cl)c1 [Example 178]	8.5	98.3	59.3	–	–	–	–
Cc1cccc(C(=O)N/N=C/c2cc(Br)cc(Br)c2O)c1 [Example 115]	6.1	97.4	78.2	–	–	–	–
COc1cccc(/C=N/NC(=O)c2ccccc2)c1O [Example 149]	0	97.1	22.1	–	–	–	–
O=C(N/N=C/c1cc(Br)cc(Br)c1O)c1ccccc1F [Example 116]	8.4	98.2	88.8	–	–	–	–
C/C(=N\NC(=O)c1ccccc1O)c1ccccc1O [Example 213]	3.7	98.8	56.1	–	–	–	–
O=C(N/N=C/c1cc(Br)ccc1O)c1ccccc1Br [Example 160]	3.4	96.1	65.5	–	–	–	–
O=C(N/N=C/c1cc(I)cc(I)c1O)c1ccc(Cl)cc1 [Example 198]	11.8	97.7	75.4	–	–	–	–
O=C(Cc1ccc(F)cc1)N/N=C/c1cc(Cl)cc(Cl)c1O [Example 126]	13.2	92.4	73.0	–	–	–	–
COc1cc(Br)cc(/C=N/NC(=O)c2ccccc2)c1O [Example 156]	7.4	94.8	51.5	–	–	–	–
COc1ccccc1C(=O)N/N=C/c1cc(Br)cc(Br)c1O [Example 114]	0	36.9	7.5	–	–	–	–
C/C(=N\NC(=O)c1ccc(C(F)(F)F)cc1)c1ccccc1O [Example 11]	0.3	97.2	42.1	–	–	–	–
C/C(=N\NC(=O)c1cccc(Cl)c1)c1ccccc1O [Example 65]	0	98.3	10.0	–	–	–	–
O=C(N/N=C/c1cc([N+](=O)[O-])ccc1O)c1ccccc1 [Example 152]	0	89.1	26.0	–	–	–	–
O=C(N/N=C/c1ccccc1O)c1ccc(Cl)cc1 [Example 2]	0	95.1	61.4	–	–	–	–
O=C(N/N=C/c1cc(Cl)cc(Br)c1O)c1cccc(Br)c1 [Example 163]	5.9	98.0	87.7	–	–	–	–
COc1ccc(/C=N/NC(=O)c2ccc(Cl)cc2)c(O)c1 [Example 200]	0	95.0	78.9	–	–	–	–
O=C(N/N=C/c1cc(Br)cc(Br)c1O)c1cccc(Cl)c1 [Example 122]	13.5	98.7	92.7	–	–	–	–
O=C(N/N=C/c1cc(Cl)cc(Br)c1O)c1ccccc1Cl [Example 161]	7	97.7	58.2	–	–	–	–

SMILES	inhibition of growth at 0.05 µg/mL [1, 3] [%]	LEPTNO % Inhn. Plus Copper Observed [1, 4] [%]	TLB % Control [2, 5] [%]	inhibition of growth at 0.05 µg/mL [1, 6] [%]	LEPTNO % Inhn. Plus Copper Observed [1, 7] [%]	TLB % Control [2, 8] [%]	LEPTNO % Inhn. Minus Copper Observed [1, 3] [%]
O=C(N/N=C/c1cc(Br)cc([N+](=O)[O-])c1O)c1ccccc1 [Example 144]	0	98.5	87.0	–	–	–	–
O=C(N/N=C/c1cc(Cl)cc([N+](=O)[O-])c1O)c1ccc(Cl)cc1 [Example 199]	4	98.0	56.1	–	–	–	–
CC(C)/C(=N\NC(=O)c1ccccc1)c1cc(Cl)cc(Cl)c1O [Example 588]	–	–	–	7.6	96.3	5.6	–
C/C(=N\NC(=O)c1cccc(I)c1)c1ccccc1O [Example 13]	–	96.2	33.3	–	–	–	0.0
C/C(=N\NC(=O)c1ccc(Cl)cc1Cl)c1ccccc1O [Example 216]	6.3	98.4	57.9	–	–	–	–
C/C(=N\NC(=O)c1ccc(C(C)(C)C)cc1)c1ccccc1O [Example 55]	0	95.5	43.9	–	–	–	–
C/C(=N\NC(=O)c1ccccc1C)c1ccccc1O [Example 66]	0.1	97.4	51.0	–	–	–	–
O=C(N/N=C/c1ccccc1O)c1ccc(Br)cc1 [Example 173]	8.3	97.7	12.2	–	–	–	–
CC/C(=N\NC(=O)c1ccccc1Cl)c1ccccc1O [Example 50]	3.5	97.4	43.5	–	–	–	–
C/C(=N\NC(=O)c1ccccc1)c1cc(Cl)ccc1O [Example 504]	–	–	–	1.3	97.6	94.0	–
COc1ccc(C(=O)N/N=C/c2cc(Cl)cc(Cl)c2O)cc1 [Example 75]	0	98.4	15.8	–	–	–	–
C/C(=N\NC(=O)c1ccccc1O)c1cc(C(F)(F)F)ccc1O [Example 538]	–	–	–	12.4	96.5	44.0	–
C/C(=N\NC(=O)c1ccc(Cl)cc1)c1cc(Br)ccc1O [Example 293]	7.9	95.7	19.0	–	–	–	–
COc1ccc(C(=O)N/N=C/c2cc(Cl)cc(Cl)c2O)cc1OC [Example 85]	5.3	90.0	51.5	–	–	–	–
O=C(N/N=C/c1cc(Br)ccc1O)c1ccccc1 [Example 148]	15.4	97.9	72.9	–	–	–	–
C/C(=N\NC(=O)c1ccc(Br)cc1)c1cc(Cl)cc(Cl)c1O [Example 139]	1.7	97.1	93.0	–	–	–	–
C/C(=N\NC(=O)c1cccc(C)c1)c1ccccc1O [Example 38]	2.4	98.3	17.0	–	–	–	–
O=C(N/N=C/c1cc(Br)cc(Br)c1O)c1ccccc1Cl [Example 112]	8.1	97.8	78.2	–	–	–	–
O=C(N/N=C/c1cc(Cl)ccc1O)c1ccccc1Br [Example 190]	5.6	95.7	70.9	–	–	–	–
O=C(N/N=C/c1cc(Cl)cc(Cl)c1O)c1cccc(F)c1 [Example 89]	17.5	95.9	85.8	–	–	–	–
Cc1ccccc1C(=O)N/N=C/c1cc(Cl)ccc1O [Example 157]	7.8	96.9	61.8	–	–	–	–
O=C(N/N=C/c1cc(Br)cc(Br)c1O)c1ccc(Br)cc1 [Example 118]	10.6	98.3	85.3	–	–	–	–
COc1ccc(/C=N/NC(=O)c2ccccc2)c(O)c1 [Example 147]	0	95.6	13.5	–	–	–	–
COc1ccc(C(=O)N/N=C(\C)c2ccccc2O)cc1 [Example 214]	7	98.0	60.0	–	–	–	–
C/C(=N\NC(=O)c1ccc(F)cc1)c1cc(Cl)cc(Cl)c1O [Example 59]	12.8	97.5	79.7	–	–	–	–
